EC50 data for 25 compounds are collected here from patent publication US9382254B2, “Compounds and pharmaceutical compositions thereof for the treatment of cystic fibrosis” (Galapagos NV, priority 2013, dated 2016).

A value given as a limit tells only on which side of the number the result lay.

What all share (format): cell-based
The target in assay [1] is T1, CFTR ΔF508 mutant (Homo sapiens, UniProt P13569, DEL508-508).
T1 construct: expressed in transfected cells; host or cells: CFBE41o- (adenoviral transduction)
The experiment in a line: YFP-halide influx assay for the CFTR-ΔF508 mutation (384 well, FDSS/μCell). The following applies: CFBE41o- cells, CFTR-ΔF508, 1×D-PBS, fluorescence after 36 seconds. An outline of the steps: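 Potentiator read-out as 1−F/F0, F taken 36 s after iodide addition, EC50 fitted against compound concentration. Cells: CFBE41o- expressing ΔF508 CFTR plus halide-sensitive YFP via adenovirus, rescued by 27 °C for 24 h or 24 h modulator at 37 °C.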

Assay [2] deals with T1, CFTR ΔF508 mutant. The experiment in a line: YFP-halide influx assay for the CFTR-ΔF508 mutation, PBS buffer (96 well). The following applies: CFBE41o- cells, forskolin 10.67 μM. The text has this:
The YFP halide influx assay measures the functionality of the cystic fibrosis Transmembrane Conductance regulator (CFTR) channels in the cystic fibrosis bronchial epithelium cell line CFBE41o-. The assay is used to evaluate the capacity of compounds to increase the open probability of existing CFTR channels in the membrane. It makes use of the observation that the yellow fluorescent protein (YFP) variant YFP H148Q, I152L has its fluorescence substantially quenched by halide ions like Cl^− and I^−. (Galietta, Haggie, & Verkman, 2001) (Nagai, et al., 2002)
For this purpose, CFBE41o-cells are seeded in 96 well plates (6000 CFBE cells/well). One day after seeding, the CFBE cells are transduced with adenoviral vectors that direct the expression of the CFTR ΔF508 mutant and of the YFP reporter. Cells are incubated at 27° C., 5% CO2 for 24 hours so as to allow for the proper folding and migration to the membrane of the CFTR channel or treated with a CFTR modulator during 24 hours at 37° C.
The I^− induced quenching of fluorescence is recorded immediately after injection of I^− for 7 seconds. The capacity of a compound to increase the channel opening is directly correlated with the decrease in fluorescence, and is expressed as (1-(fluorescence after 7 seconds (F)/fluorescence before injection (F0))) and an EC50 can be derived from a (1-F/F0) vs compound concentration plot.

For the next assay, the target named is T2, CFTR G551D mutant (Homo sapiens, UniProt P13569, G551D).
T2 construct: expressed in transfected cells; host or cells: HEK293 (reverse transfection with plasmid)
Put plainly: YFP-halide influx assay for the CFTR-G551D mutation. The following applies: HEK293 cells, forskolin 10.67 μM. An outline of the steps: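 HEK293 cells reverse-transfected with CFTR G551D and YFP H148Q/I152L/F47L halide sensor, expressed 24 h at 37 °C. Iodide-induced fluorescence quench recorded 7 s after I− injection; response = 1−F/F0, with EC50 from plot against compound concentration.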

T2 sequence (P13569 whole entry G551D): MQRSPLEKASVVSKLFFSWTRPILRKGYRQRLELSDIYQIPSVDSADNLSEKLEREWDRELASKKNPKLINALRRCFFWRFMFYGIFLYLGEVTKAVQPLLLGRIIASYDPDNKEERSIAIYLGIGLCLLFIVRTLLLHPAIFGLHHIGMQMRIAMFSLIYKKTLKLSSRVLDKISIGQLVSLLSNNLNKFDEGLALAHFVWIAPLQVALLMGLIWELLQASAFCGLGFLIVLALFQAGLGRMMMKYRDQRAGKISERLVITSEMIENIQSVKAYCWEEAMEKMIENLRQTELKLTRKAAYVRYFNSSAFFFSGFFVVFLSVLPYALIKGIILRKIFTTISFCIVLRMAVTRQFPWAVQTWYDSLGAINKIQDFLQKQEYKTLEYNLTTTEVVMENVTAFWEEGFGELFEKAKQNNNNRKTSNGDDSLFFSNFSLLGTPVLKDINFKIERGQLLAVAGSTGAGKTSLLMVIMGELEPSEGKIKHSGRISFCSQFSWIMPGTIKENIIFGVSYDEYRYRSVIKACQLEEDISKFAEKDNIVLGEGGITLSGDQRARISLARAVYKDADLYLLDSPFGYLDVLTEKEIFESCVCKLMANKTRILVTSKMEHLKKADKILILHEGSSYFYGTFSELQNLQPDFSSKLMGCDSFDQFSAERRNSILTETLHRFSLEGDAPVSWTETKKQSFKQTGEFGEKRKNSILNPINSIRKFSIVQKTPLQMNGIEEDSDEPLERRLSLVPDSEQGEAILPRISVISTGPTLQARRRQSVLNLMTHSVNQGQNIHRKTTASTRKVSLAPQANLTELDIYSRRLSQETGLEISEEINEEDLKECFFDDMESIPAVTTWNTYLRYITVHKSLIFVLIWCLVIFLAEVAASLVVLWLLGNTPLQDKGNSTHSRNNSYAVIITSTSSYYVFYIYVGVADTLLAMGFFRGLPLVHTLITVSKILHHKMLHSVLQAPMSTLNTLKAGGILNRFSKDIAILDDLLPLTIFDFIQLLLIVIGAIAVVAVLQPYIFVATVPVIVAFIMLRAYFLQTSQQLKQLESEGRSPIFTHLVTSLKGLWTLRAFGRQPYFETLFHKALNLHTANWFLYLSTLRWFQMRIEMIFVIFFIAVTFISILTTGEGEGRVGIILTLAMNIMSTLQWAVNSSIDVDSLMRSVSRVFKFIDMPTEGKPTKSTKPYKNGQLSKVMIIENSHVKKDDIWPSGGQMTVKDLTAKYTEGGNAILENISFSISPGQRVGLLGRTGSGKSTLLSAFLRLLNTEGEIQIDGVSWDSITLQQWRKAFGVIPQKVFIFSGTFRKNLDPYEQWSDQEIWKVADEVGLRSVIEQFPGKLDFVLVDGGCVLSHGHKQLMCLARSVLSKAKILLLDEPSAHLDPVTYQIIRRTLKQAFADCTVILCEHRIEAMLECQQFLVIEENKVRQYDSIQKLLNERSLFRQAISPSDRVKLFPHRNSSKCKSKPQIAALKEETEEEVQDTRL
T1 sequence (P13569 with tags, fused parts or gaps DEL508-508): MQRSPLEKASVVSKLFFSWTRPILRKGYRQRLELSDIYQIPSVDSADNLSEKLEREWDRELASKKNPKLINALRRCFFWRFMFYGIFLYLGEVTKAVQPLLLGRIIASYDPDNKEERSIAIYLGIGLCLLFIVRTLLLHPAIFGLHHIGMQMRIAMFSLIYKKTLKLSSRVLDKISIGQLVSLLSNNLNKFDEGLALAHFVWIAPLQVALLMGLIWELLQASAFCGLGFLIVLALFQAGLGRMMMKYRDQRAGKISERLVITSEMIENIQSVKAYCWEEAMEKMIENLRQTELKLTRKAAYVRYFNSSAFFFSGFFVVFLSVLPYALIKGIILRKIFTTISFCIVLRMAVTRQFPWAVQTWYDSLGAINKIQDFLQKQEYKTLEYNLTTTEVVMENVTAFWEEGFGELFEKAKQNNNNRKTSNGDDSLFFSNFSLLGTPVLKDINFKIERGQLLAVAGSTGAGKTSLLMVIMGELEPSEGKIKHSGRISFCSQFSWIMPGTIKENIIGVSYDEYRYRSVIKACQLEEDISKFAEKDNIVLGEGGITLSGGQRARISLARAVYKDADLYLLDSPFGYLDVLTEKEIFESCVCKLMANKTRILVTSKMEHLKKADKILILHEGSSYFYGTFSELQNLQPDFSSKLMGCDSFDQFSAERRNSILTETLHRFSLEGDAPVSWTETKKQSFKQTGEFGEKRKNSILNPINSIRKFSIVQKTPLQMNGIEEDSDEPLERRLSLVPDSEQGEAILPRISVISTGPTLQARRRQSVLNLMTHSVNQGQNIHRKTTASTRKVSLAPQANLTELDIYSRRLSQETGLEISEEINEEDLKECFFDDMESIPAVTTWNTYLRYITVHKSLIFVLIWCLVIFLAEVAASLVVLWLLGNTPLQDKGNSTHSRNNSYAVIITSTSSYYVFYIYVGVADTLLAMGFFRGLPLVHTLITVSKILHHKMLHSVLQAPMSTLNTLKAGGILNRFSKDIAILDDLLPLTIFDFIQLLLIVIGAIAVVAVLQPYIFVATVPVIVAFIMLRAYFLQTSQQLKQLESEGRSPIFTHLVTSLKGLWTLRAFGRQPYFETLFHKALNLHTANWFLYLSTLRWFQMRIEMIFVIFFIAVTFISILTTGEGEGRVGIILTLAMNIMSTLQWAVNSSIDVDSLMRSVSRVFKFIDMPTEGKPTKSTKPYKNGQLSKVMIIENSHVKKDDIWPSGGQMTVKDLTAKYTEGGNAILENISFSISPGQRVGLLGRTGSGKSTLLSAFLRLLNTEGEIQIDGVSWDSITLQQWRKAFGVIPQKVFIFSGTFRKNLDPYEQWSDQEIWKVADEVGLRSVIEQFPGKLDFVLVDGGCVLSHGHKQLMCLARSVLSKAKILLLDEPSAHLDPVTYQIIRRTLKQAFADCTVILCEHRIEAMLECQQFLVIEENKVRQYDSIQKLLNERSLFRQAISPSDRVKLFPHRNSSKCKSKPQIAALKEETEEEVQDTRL

As for `NC(=O)c1cc(S(=O)(=O)c2cccc(F)c2)sc1NC(=O)C1(O)CC1` [Compound 227, 5-(3-fluorophenylsulfonyl)-2-(1-hydroxycyclopropanecarboxamido) thiophene-3-carboxamide], the EC50 came to 39.3 nM at CFTR ΔF508 mutant [1], 41.5 nM on CFTR ΔF508 mutant [2] and 472 nM on CFTR G551D mutant.

For `CN(Cc1ccc(F)cc1)S(=O)(=O)c1cc(C(N)=O)c(NC(=O)C(C)(C)O)s1` [Compound 305, 5-(N-(4-fluorobenzyl)-N-methylsulfamoyl)-2-(2-hydroxy-2-methylpropanamido) thiophene-3-carboxamide], the figures for the EC50 on CFTR ΔF508 mutant [1], at CFTR ΔF508 mutant [2] and on CFTR G551D mutant were 23.9 nM, 31.5 nM and 803 nM, respectively.

Take `CC(C)(O)C(=O)Nc1sc(S(=O)(=O)c2cc(Cl)ccc2F)cc1C(N)=O` [Compound 303, 5-(5-chloro-2-fluorophenylsulfonyl)-2-(2-hydroxy-2-methylpropanamido) thiophene-3-carboxamide]: the EC50 at CFTR ΔF508 mutant [1] came out at 8.5 nM; on CFTR ΔF508 mutant [2] it was 37.5 nM; on CFTR G551D mutant it was 1670 nM.

With `CC(C)(O)C(=O)Nc1sc(S(=O)(=O)c2ccc3c(c2)OC(F)(F)O3)cc1C(N)=O` [Compound 310, 5-(2,2-difluorobenzo[d][1,3]dioxol-5-ylsulfonyl)-2-(2-hydroxy-2-methylpropanamido) thiophene-3-carboxamide], the EC50 at CFTR ΔF508 mutant [1] amounted to 66.1 nM; on CFTR ΔF508 mutant [2], 42.6 nM; on CFTR G551D mutant, 1760 nM.

Consider `NC(=O)c1cc(S(=O)(=O)c2ccc(Cl)cc2)sc1NC(=O)C1(O)CC1` [Compound 225, 5-(4-chlorophenylsulfonyl)-2-(1-hydroxycyclopropanecarboxamido) thiophene-3-carboxamide], for which the 50% effective concentration (EC50) worked out at 26.5 nM on CFTR ΔF508 mutant [1], 36.2 nM on CFTR ΔF508 mutant [2] and 295 nM on CFTR G551D mutant.

Take `CN(C)c1cccc(S(=O)(=O)c2cc(C(N)=O)c(NC(=O)C(C)(C)O)s2)c1` [Compound 292, 5-(3-(dimethylamino)phenylsulfonyl)-2-(2-hydroxy-2-methylpropanamido) thiophene-3-carboxamide]: the EC50 at CFTR ΔF508 mutant [1] is 182 nM; at CFTR ΔF508 mutant [2], 70 nM; at CFTR G551D mutant, 2280 nM.

Regarding `CC(CO)C(=O)Nc1sc(S(=O)(=O)c2ccc(F)cc2)cc1C(N)=O` (stereo not shown) [Compound 273, 5-(4-fluorophenylsulfonyl)-2-(3-hydroxy-2-methylpropanamido) thiophene-3-carboxamide], the EC50 at CFTR ΔF508 mutant [1] was 148 nM; on CFTR ΔF508 mutant [2], 111 nM; at CFTR G551D mutant, 3080 nM.

For `CC(C)(O)C(=O)Nc1sc(S(=O)(=O)c2ccccc2CC(F)(F)F)cc1C(N)=O` [Compound 302, 2-(2-hydroxy-2-methylpropanamido)-5-(2-(2,2,2-trifluoroethyl)phenylsulfonyl) thiophene-3-carboxamide], the EC50 at CFTR ΔF508 mutant [1] came to 8.1 nM; on CFTR ΔF508 mutant [2], 11.3 nM; on CFTR G551D mutant, 307 nM.

`NC(=O)c1cc(S(=O)(=O)c2ccc(F)cc2)sc1NC(=O)C1CCCC1O` (stereo not shown) [Compound 272, 5-(4-fluorophenylsulfonyl)-2-(2-hydroxycyclopentanecarboxamido) thiophene-3-carboxamide]: the results for the EC50 at CFTR ΔF508 mutant [1], on CFTR ΔF508 mutant [2] and at CFTR G551D mutant were 102 nM, 48.9 nM and 771 nM, respectively.

As to `NC(=O)c1cc(S(=O)(=O)N2CCOc3ccccc32)sc1NC(=O)C1(O)CC1` [Compound 242, 5-(2H-benzo[b][1,4]oxazin-4(3H)-ylsulfonyl)-2-(1-hydroxycyclopropanecarboxamido) thiophene-3-carboxamide], the EC50 came to 9.6 nM at CFTR ΔF508 mutant [1], 17.3 nM on CFTR ΔF508 mutant [2] and 163 nM at CFTR G551D mutant.

Take `CC(C)(O)C(=O)Nc1sc(S(=O)(=O)c2ccc(F)cc2OC(F)F)cc1C(N)=O` [Compound 283, 5-(2-(difluoromethoxy)-4-fluorophenylsulfonyl)-2-(2-hydroxy-2-methylpropanamido) thiophene-3-carboxamide]: the EC50 at CFTR ΔF508 mutant [1] was determined as 69.6 nM; at CFTR ΔF508 mutant [2] it was 47.7 nM; at CFTR G551D mutant, 564 nM.

On to `Cc1cccnc1S(=O)(=O)c1cc(C(N)=O)c(NC(=O)C(C)(C)O)s1` [Compound 278, 2-(2-hydroxy-2-methylpropanamido)-5-(3-methylpyridin-2-ylsulfonyl) thiophene-3-carboxamide], for which the results for the EC50 on CFTR ΔF508 mutant [2] and on CFTR G551D mutant (class symbol) were 1400 nM and greater than 1000 nM, respectively.

On to `COc1ccccc1S(=O)(=O)c1cc(C(N)=O)c(NC(=O)C(C)(C)O)s1` [Compound 301, 2-(2-hydroxy-2-methylpropanamido)-5-(2-methoxyphenylsulfonyl) thiophene-3-carboxamide], for which the EC50 on CFTR ΔF508 mutant [2] was 174 nM; at CFTR G551D mutant (class symbol), greater than 1000 nM.

For the compound `NC(=O)c1cc(S(=O)(=O)c2ccc(F)cc2)sc1NC(=O)C(O)CO` (stereo not shown) [Compound 288, 2-(2,3-dihydroxypropanamido)-5-(4-fluorophenylsulfonyl) thiophene-3-carboxamide], the half-maximal effective concentration (EC50) at CFTR ΔF508 mutant [2] was 2360 nM; on CFTR G551D mutant (class symbol) it was greater than 1000 nM.

Take `NC(=O)c1cc(S(=O)(=O)c2ccc(F)cc2)sc1NC(=O)C(O)(C(F)(F)F)C(F)(F)F` [Compound 275, 5-(4-fluorophenylsulfonyl)-2-(3,3,3-trifluoro-2-hydroxy-2-(trifluoromethyl)propanamido) thiophene-3-carboxamide]: the concentration giving a half-maximal response (EC50) on CFTR ΔF508 mutant [2] came out at 220 nM; at CFTR G551D mutant, 1720 nM.

In the case of `CN(C1CC1)S(=O)(=O)c1cc(C(N)=O)c(NC(=O)C2(O)CC2)s1` [Compound 232, 5-(N-cyclopropyl-N-methylsulfamoyl)-2-(1-hydroxycyclopropanecarboxamido) thiophene-3-carboxamide], the half-maximal effective concentration (EC50) at CFTR ΔF508 mutant [2] turned out to be 128 nM; at CFTR G551D mutant, 1050 nM.

On to `CC(C)(O)C(=O)Nc1sc(S(=O)(=O)N2CCC(F)(F)CC2)cc1C(N)=O` [Compound 308, 5-(4,4-difluoropiperidin-1-ylsulfonyl)-2-(2-hydroxy-2-methylpropanamido) thiophene-3-carboxamide], for which the figures for the EC50 at CFTR ΔF508 mutant [2] and on CFTR G551D mutant were 234 nM and 1030 nM, respectively.

Take `COCCOC(C)C(=O)Nc1sc(S(=O)(=O)c2ccc(F)cc2)cc1C(N)=O` (stereo not shown) [Compound 276, 5-(4-fluorophenylsulfonyl)-2-(2-(2-methoxyethoxy)propanamido) thiophene-3-carboxamide]: the EC50 was 777 nM at CFTR ΔF508 mutant [2] and 3330 nM on CFTR G551D mutant.

Turning to `CC(C)N(C(C)C)S(=O)(=O)c1cc(C(N)=O)c(NC(=O)C2(O)CC2)s1` [Compound 233, 5-(N,N-diisopropylsulfamoyl)-2-(1-hydroxycyclopropanecarboxamido) thiophene-3-carboxamide], the figures for the EC50 at CFTR ΔF508 mutant [2] and at CFTR G551D mutant (class symbol) were 130 nM and greater than 1000 nM, respectively.

Regarding `CC(C)(O)C(=O)Nc1sc(S(=O)(=O)c2cc(F)ccc2O)cc1C(N)=O` [Compound 296, 5-(5-fluoro-2-hydroxyphenylsulfonyl)-2-(2-hydroxy-2-methylpropanamido) thiophene-3-carboxamide], the EC50 at CFTR ΔF508 mutant [2] was 727 nM; on CFTR G551D mutant (class symbol) it was greater than 1000 nM.

As for `Cc1cc(S(=O)(=O)c2cc(C(N)=O)c(NC(=O)C(C)(C)O)s2)ccn1` [Compound 299, 2-(2-Hydroxy-2-methyl-propionylamino)-5-(2-methyl-pyridine-4-sulfonyl)-thiophene-3-carboxylic acid amide], the 50% effective concentration (EC50) at CFTR ΔF508 mutant [2] stood at 915 nM; on CFTR G551D mutant it was 3330 nM.

For `COCCN(C1CC1)S(=O)(=O)c1cc(C(N)=O)c(NC(=O)C(C)(C)O)s1` [Compound 306, 5-(N-cyclopropyl-N-(2-methoxyethyl)sulfamoyl)-2-(2-hydroxy-2-methylpropanamido) thiophene-3-carboxamide], the EC50 at CFTR ΔF508 mutant [2] was 254 nM; at CFTR G551D mutant (class symbol), greater than 1000 nM.

In the case of `Cn1ccnc1S(=O)(=O)c1cc(C(N)=O)c(NC(=O)C(C)(C)O)s1` [Compound 285, 2-(2-hydroxy-2-methylpropanamido)-5-(1-methyl-1H-imidazol-2-ylsulfonyl) thiophene-3-carboxamide], the EC50 on CFTR ΔF508 mutant [2] and on CFTR G551D mutant (class symbol) was greater than 1000 nM throughout.

In the case of `COCCOc1cc(F)ccc1S(=O)(=O)c1cc(C(N)=O)c(NC(=O)C(C)(C)O)s1` [Compound 282, 5-(4-fluoro-2-(2-methoxyethoxy)phenylsulfonyl)-2-(2-hydroxy-2-methylpropanamido) thiophene-3-carboxamide], the EC50 at CFTR ΔF508 mutant [2] was determined as 157 nM; on CFTR G551D mutant, 3330 nM.

For `Cc1ccc(S(=O)(=O)c2cc(C(N)=O)c(NC(=O)C(C)(C)O)s2)cn1` [Compound 297, 2-(2-Hydroxy-2-methyl-propionylamino)-5-(6-methyl-pyridine-3-sulfonyl)-thiophene-3-carboxylic acid amide], the figures for the concentration for a half-maximal effect (EC50) on CFTR ΔF508 mutant [2] and at CFTR G551D mutant were 367 nM and 3330 nM, respectively.

For orientation: EC50 means the concentration giving half of the maximal effect. Low values mean an effect from little substance, high ones a need for much substance.
